The source of these data is ChEMBL document CHEMBL1155103, “Synthesis and SAR of novel, potent and orally bioavailable benzimidazole inhibitors of poly(ADP-ribose) polymerase (PARP) with a quaternary methylene-amino substituent” (Bioorg Med Chem Lett, 2008).

The nature of data set [1]: Oral bioavailability in mouse at 10 mg/kg. Type of data set: ADME, organism-based. Conditions: in vivo.
Data set [2] deals with T1, Poly [ADP-ribose] polymerase 1 (Homo sapiens, UniProt P09874). In words: Inhibition of PARP1 in cell based assay.
Data set [3] has as its target T1, Poly [ADP-ribose] polymerase 1. In words: Inhibition of PARP1.
Data set [4] is described as follows: Clearance in mouse at 5 mg/kg, iv and 10 mg/kg, po. The following applies: in vivo. In kind it is ADME, organism-based.
A short description of data set [5]: Half life in mouse at 5 mg/kg, iv. Type of data set: ADME, organism-based. Further details: dose 5 mg/kg, route intravenous. Conditions: in vivo.
Data set [6] in a line: Volume of distribution in mouse at 5 mg/kg, iv and 10 mg/kg, po. Conditions: in vivo. In kind it is ADME, organism-based.
The nature of data set [7]: AUC in mouse at 10 mg/kg, po. The following applies: plasma. Details: dose 10 mg/kg, route oral. Type of data set: ADME, organism-based.
The nature of data set [8]: Clearance in mouse at 3 mg/kg, iv and 10 mg/kg, po. Conditions: in vivo. Type of data set: ADME, organism-based.
Data set [9] in a line: Half life in dog at 2.5 mg/kg, iv and 2.5 mg/kg, po. In kind it is ADME, organism-based, Canis lupus familiaris. The following applies: in vivo.
Data set [10] in a line: Volume of distribution in monkey at 2.5 mg/kg, iv and 2.5 mg/kg, po. Type of data set: ADME, organism-based, Macaca mulatta. Conditions: rhesus monkey, in vivo.
Data set [11] in a line: Volume of distribution in dog at 2.5 mg/kg, iv and 2.5 mg/kg, po. Type of data set: ADME, organism-based, Canis lupus familiaris. Conditions: in vivo.
Data set [12] in a line: Oral bioavailability in monkey at 2.5 mg/kg. The following applies: rhesus monkey, in vivo. Type of data set: ADME, organism-based, Macaca mulatta.
Data set [13] can be described thus: Clearance in monkey at 2.5 mg/kg, iv and 2.5 mg/kg, po. The following applies: rhesus monkey, in vivo. In kind it is ADME, organism-based, Macaca mulatta.
The nature of data set [14]: Volume of distribution in mouse at 3 mg/kg, iv and 10 mg/kg, po. In kind it is ADME, organism-based. Conditions: in vivo.
A short description of data set [15]: Half life in rat at 5 mg/kg, iv and 5 mg/kg, po. In kind it is ADME, organism-based. Conditions: in vivo.
The nature of data set [16]: AUC in rat at 5 mg/kg, po. The following applies: plasma. Details: dose 5 mg/kg, route oral. In kind it is ADME, organism-based.
The nature of data set [17]: Volume of distribution in rat at 5 mg/kg, iv and 5 mg/kg, po. In kind it is ADME, organism-based. The following applies: in vivo.
Data set [18] in a line: AUC in monkey at 2.5 mg/kg, po. In kind it is ADME, organism-based, Macaca mulatta. Further details: dose 2.5 mg/kg, route oral. The following applies: rhesus monkey, plasma.
The nature of data set [19]: AUC in dog at 2.5 mg/kg, po. Type of data set: ADME, organism-based, Canis lupus familiaris. Conditions: plasma. Further details: dose 2.5 mg/kg, route oral.
Data set [20] is described as follows: Half life in mouse at 3 mg/kg, iv and 10 mg/kg, po. The following applies: in vivo. Type of data set: ADME, organism-based.
Data set [21] is described as follows: Oral bioavailability in dog at 2.5 mg/kg. In kind it is ADME, organism-based, Canis lupus familiaris. Conditions: in vivo.
A short description of data set [22]: Oral bioavailability in rat at 5 mg/kg. In kind it is ADME, organism-based. Conditions: in vivo.
Data set [23] is described as follows: Clearance in dog at 2.5 mg/kg, iv and 2.5 mg/kg, po. Type of data set: ADME, organism-based, Canis lupus familiaris. Conditions: in vivo.
Data set [24] is described as follows: Half life in monkey at 2.5 mg/kg, iv and 2.5 mg/kg, po. In kind it is ADME, organism-based, Macaca mulatta. Conditions: rhesus monkey, in vivo.
The test system of a further data set is B16-F10. In words: Potentiation of temozolomide-induced cytotoxicity in mouse B16F10 cells […] C57BL/6 mouse melanoma model assessed as reduction in tumor volume at 30 mg/kg, po. In kind it is functional, organism-based. Details: dose 30 mg/kg.
Data set [25] is described as follows: Clearance in rat at 5 mg/kg, iv and 5 mg/kg, po. Type of data set: ADME, organism-based. Conditions: in vivo.

Active and inactive are the calls of the source.

T1 sequence (P09874 whole entry): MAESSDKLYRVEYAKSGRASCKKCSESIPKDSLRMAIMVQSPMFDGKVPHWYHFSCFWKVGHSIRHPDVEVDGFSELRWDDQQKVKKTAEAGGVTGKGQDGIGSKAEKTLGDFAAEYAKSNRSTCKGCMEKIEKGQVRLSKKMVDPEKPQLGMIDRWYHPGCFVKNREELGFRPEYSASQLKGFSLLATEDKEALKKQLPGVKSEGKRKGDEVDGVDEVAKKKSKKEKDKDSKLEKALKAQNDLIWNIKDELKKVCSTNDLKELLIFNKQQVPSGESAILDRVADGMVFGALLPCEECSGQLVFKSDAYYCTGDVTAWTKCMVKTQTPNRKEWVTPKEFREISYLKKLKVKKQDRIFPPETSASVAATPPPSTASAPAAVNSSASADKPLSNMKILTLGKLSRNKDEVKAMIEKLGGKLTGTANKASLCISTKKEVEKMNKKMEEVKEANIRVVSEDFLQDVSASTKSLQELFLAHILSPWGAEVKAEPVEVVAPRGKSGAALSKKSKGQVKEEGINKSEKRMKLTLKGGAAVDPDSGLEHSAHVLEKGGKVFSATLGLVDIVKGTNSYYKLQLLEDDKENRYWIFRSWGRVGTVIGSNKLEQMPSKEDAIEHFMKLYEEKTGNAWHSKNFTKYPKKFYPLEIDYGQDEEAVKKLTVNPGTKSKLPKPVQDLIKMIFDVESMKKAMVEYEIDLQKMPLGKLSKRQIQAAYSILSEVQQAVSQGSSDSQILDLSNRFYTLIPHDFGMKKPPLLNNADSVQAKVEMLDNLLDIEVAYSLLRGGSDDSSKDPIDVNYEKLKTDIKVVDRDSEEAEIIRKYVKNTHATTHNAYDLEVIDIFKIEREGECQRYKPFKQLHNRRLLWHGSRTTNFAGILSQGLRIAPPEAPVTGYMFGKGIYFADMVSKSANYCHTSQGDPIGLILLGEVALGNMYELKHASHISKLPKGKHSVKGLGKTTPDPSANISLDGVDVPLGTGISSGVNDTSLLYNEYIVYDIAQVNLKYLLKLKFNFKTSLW

A word on the bioavailability: it is the share of a dose that reaches the circulation, judged against a reference dose that is usually intravenous. What is called EC50 is the concentration giving half of the maximal effect. As usually defined, the Ki is the dissociation constant of the complex between target and ligand, obtained from inhibition or displacement. A word on the half-life: it is the time needed for the level to fall by half in the phase considered. For orientation: AUC means the area under the concentration-time curve, a measure of exposure. The molecule `CNC(C)(C)c1nc2cccc(C(N)=O)c2[nH]1` showed a bioavailability in data set [1] of 85%. In data set [2], this molecule showed an EC50 of 1.3 nM. Also, the Ki in [3] came out at 4 nM. The molecule also had a clearance in data set [4] of 70 mL/min/kg. Further, the half-life in data set [5] is 36 min. Further, the Vd in data set [6] was 3.5 L/kg. This molecule also came in with an AUC in data set [7] of 8.64 µM·h.
Molecule `CN(CC1CCOC1)C(C)(C)c1nc2cccc(C(N)=O)c2[nH]1` (stereo not drawn) displayed a Ki in data set [3] of 17 nM.
For the molecule `CC(NCC1CC1)c1nc2c(C(N)=O)cccc2[nH]1` (stereo not drawn), the Ki in [3] was 24 nM.
As for `CC(C)(NC1CCCC1)c1nc2c(C(N)=O)cccc2[nH]1`, the midpoint of the response in data set [2], the EC50, lay at 4 nM. The molecule further had a Ki in data set [3] of 9 nM.
For the molecule `NC(=O)c1cccc2[nH]c(C3(N)CC3)nc12`, in [3], the Ki was determined as 25 nM.
As to `NC(=O)c1cccc2[nH]c(C3(N)CCC3)nc12`, the inhibition constant (Ki) in data set [3] is 25 nM.
With `CC(C)NC(C)(C)c1nc2c(C(N)=O)cccc2[nH]1`, the clearance in data set [8] was 66.7 mL/min/kg; in data set [13] it was 23.3 mL/min/kg; in data set [4], 66.7 mL/min/kg; in [23], 14.2 mL/min/kg; in data set [25] it was 85 mL/min/kg. The half-life is 168 min in [9]; 60 min in [15]; 36 min in data set [20]; 36 min in data set [5]; 36 min in data set [24]. In addition, the bioavailability in data set [1] worked out at 82%; in data set [12], 12.6%; in [21], 70.5%; in data set [22], 26%. Besides, the Vd was 1.1 L/kg in data set [10]; 2.9 L/kg in data set [11]; 2.1 L/kg in data set [14]; 3.7 L/kg in data set [17]; 2.1 L/kg in data set [6]. For the same molecule, the AUC in data set [16] came out at 0.74 µM·h; in data set [18], 0.65 µM·h; in [19], 6.07 µM·h; in [7], 5.78 µM·h. In addition, in data set [2], the EC50 came to 2 nM. In [3], this molecule had a Ki of 7 nM. For the same molecule, the outcome in the data set on B16-F10 was Active.
As to `CN(C)C(C)(C)c1nc2cccc(C(N)=O)c2[nH]1`, a half-maximal response in data set [2] (EC50) required 1.8 nM. In data set [3], the Ki is 9 nM.
Take `CC(NCCc1ccccc1)c1nc2c(C(N)=O)cccc2[nH]1` (stereo not drawn): the Ki in [3] was 35 nM.
Take `CC(N)c1nc2c(C(N)=O)cccc2[nH]1` (stereo not drawn): the Ki in [3] turned out to be 50 nM.
Take `CC(C)(N)c1nc2c(C(N)=O)cccc2[nH]1`: the affinity in data set [3], expressed as Ki, was 19 nM.
Regarding `CC(C)(c1nc2c(C(N)=O)cccc2[nH]1)N1CCCC1`, the bioavailability in data set [1] was 52%. Moreover, the EC50 in [2] came to 0.9 nM. This molecule gave a Ki in [3] of 3 nM. In addition, the clearance in data set [4] is 50 mL/min/kg. In data set [5], this molecule had a half-life of 24 min. Moreover, the outcome in the data set with B16-F10 was Active. This molecule returned a Vd in data set [6] of 1.8 L/kg. In addition, the AUC in [7] amounted to 6.33 µM·h.
With `CN(C1CCC1)C(C)(C)c1nc2c(C(N)=O)cccc2[nH]1`, in data set [3], the affinity, expressed as Ki, was 19 nM.
On the same count and under the same terms, next, `CC(CCN)c1nc2c(C(N)=O)cccc2[nH]1` (stereo not drawn): 32 nM.
Turning to `CC(C)NC(C)c1nc2c(C(N)=O)cccc2[nH]1` (stereo not drawn), the Ki in data set [3] was found to be 12 nM.
In [1], `CC(C)(NCC1CC1)c1nc2c(C(N)=O)cccc2[nH]1` registered a bioavailability of 100%. Also, in data set [2], it took 2 nM to reach a half-maximal effect (EC50). The Ki in data set [3] stood at 7 nM. Besides, the clearance in data set [4] is 192 mL/min/kg. For the same molecule, the half-life in data set [5] is 48 min. The molecule further displayed a Vd in data set [6] of 13.3 L/kg. Also, the AUC in data set [7] was 3.38 µM·h.
`CC(NC1CCCCC1)c1nc2c(C(N)=O)cccc2[nH]1` (stereo not drawn) displayed a Ki in data set [3] of 53 nM.
In turn, `CC(C)(c1nc2cccc(C(N)=O)c2[nH]1)N1CCCCC1` gave an EC50 in [2] of 3.1 nM. For the same molecule, in [3], the Ki was found to be 15 nM.
On to `CC(NC1CCCC1)c1nc2c(C(N)=O)cccc2[nH]1` (stereo not drawn), for which, in data set [3], the affinity corresponds to a Ki of 33 nM.
Consider `CC(CCNC1CCCC1)c1nc2c(C(N)=O)cccc2[nH]1` (stereo not drawn), for which the affinity in data set [3], expressed as Ki, was 45 nM.
With `CC(C)(NCCc1ccccc1)c1nc2c(C(N)=O)cccc2[nH]1`, the EC50 in [2] was determined as 9 nM. Moreover, in data set [3], the Ki is 37 nM.
`CCN(CC)C(C)c1nc2c(C(N)=O)cccc2[nH]1` (stereo not drawn) had a Ki in data set [3] of 61 nM.
In [3], `NC(=O)c1cccc2[nH]c(C3(N)CCc4ccccc4C3)nc12` (stereo not drawn) had an inhibitory constant (Ki) of 18 nM.
The same measure, in the same setting: next, `CCNC(=O)NC(C)(C)c1nc2c(C(N)=O)cccc2[nH]1`: 870 nM; `CC(NS(=O)(=O)N(C)C)c1nc2c(C(N)=O)cccc2[nH]1` (stereo not drawn): 140 nM.
`CCCNC(C)c1nc2c(C(N)=O)cccc2[nH]1` (stereo not drawn) returned a Ki in data set [3] of 41 nM.
As to `NC(=O)c1cccc2[nH]c(C3(N)Cc4ccccc4C3)nc12`, the affinity in data set [3] corresponds to a Ki of 58 nM.
Molecule `NC(=O)c1cccc2[nH]c(C3(N)CCCCC3)nc12` yielded a Ki in [3] of 50 nM.
In data set [2], `CCCNC(C)(C)c1nc2c(C(N)=O)cccc2[nH]1` had an EC50 of 3 nM. The Ki in data set [3] came out at 10 nM.
